# Source: US20110092476A1, “Bicycloheteroaryl compounds as P2X7 modulators and uses thereof” (Renovis, Inc., priority 2006, published 2011)
# Like-named read-outs stand apart in the source and are kept apart here.
# Columns and labels:
# P2X7 receptor = target: T1, P2X7 receptor (Homo sapiens, UniProt Q99572); test: IL-1β release assay in differentiated THP-1 cells stimulated with BzATP (Example 9); format: cell-based; conditions: BzATP 250 uM; for inhibition at 0.3 µM / inhibition at 0.1 µM: differentiated THP-1 cells, read-out: IL-1β % Inhib. @ 0.3 or 0.1 uM; for IC50: THP-1 cells, IL-1β by ELISA
# T1 construct: host or cells: THP-1 cells differentiated with LPS and IFN-γ
# T1 sequence (Q99572 1-595): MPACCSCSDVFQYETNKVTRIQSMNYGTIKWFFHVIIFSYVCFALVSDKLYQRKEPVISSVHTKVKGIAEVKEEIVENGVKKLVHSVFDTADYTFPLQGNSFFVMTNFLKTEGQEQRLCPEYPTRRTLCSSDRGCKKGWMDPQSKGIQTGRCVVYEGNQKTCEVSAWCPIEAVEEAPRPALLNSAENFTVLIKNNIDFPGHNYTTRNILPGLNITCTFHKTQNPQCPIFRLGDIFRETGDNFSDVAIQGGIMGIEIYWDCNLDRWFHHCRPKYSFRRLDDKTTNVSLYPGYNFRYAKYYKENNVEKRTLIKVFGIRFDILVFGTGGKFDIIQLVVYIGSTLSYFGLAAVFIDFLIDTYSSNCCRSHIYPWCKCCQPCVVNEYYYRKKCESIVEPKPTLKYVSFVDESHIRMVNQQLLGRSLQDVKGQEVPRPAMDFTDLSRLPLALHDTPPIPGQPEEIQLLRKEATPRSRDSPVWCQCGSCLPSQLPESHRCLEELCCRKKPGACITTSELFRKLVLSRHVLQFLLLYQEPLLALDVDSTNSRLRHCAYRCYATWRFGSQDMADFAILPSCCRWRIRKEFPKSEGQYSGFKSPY
# Summary of the method: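 IC50 derived by four-parameter logistic fit of percent inhibition of IL-1β release (ELISA, background-adjusted). Release triggered by 45 min BzATP at 250 uM final after 30 min compound pretreatment of THP-1 cells previously differentiated 16 h (LPS, IFN-γ, 100 ng/mL each) and re-primed 2 h with LPS.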
# [1] = Determination of aqueous (kinetic) solubility; format: physicochemical; conditions: aqueous buffer, kinetic from dmso stock, buffer pH 7.4
# Method: The mixture was vortexed for 1 hour and equilibrated overnight at room temperature. The mixture was filtered through a saturated filter and the filtrate was analyzed by LC/MS/MS.
# For the purpose of Table 5, solubility of each compound is expressed as follows: […]
Compound,"inhibition at 0.3 µM (P2X7 receptor; 0.3 μM compound, ""+"" symbols) [%]",solubility [1] [µM],also measured
Cc1ccc2c(=O)n([C@H](C)CO)ccc2c1NC(=O)Cc1ccc(C(F)(F)F)cc1 [Compound 397],> 76,51 to 75,IC50 (P2X7 receptor): 65.1 nM
"CC(C)[C@H](C(N)=O)n1ccc2c(NC(=O)[C@H](C)c3ccc(Cl)cc3)cccc2c1=O [Compound 284, (R)-2-{5-[(R)-2-(4-Chloro-phenyl)-propionylamino]-1-oxo-1H-isoquinolin-2-yl}-3-methyl-butyramide]",> 76,> 75,
CC(C)[C@H](C(N)=O)n1ccc2c(NC(=O)[C@@H](C)c3ccc(Cl)cc3)cccc2c1=O [Compound 283],> 76,> 75,
Cc1ccc2c(=O)n([C@H](C)CO)ccc2c1NC(=O)Cc1cccc(C(F)(F)F)c1F [Compound 395],> 76,> 75,IC50 (P2X7 receptor): 9.44 nM
CC(C)(O)Cn1ccc2c(NC(=O)c3cc(Cl)cc(Cl)c3)cccc2c1=O [Compound 203],,,"inhibition at 0.1 µM (P2X7 receptor; 0.1 μM compound, ""*"" symbols): 0 to 25%"
COc1ccc(C(=O)Nc2cccc3c(=O)n(CC4(O)CCCCC4)ccc23)c(C)c1 [Compound 56],,,inhibition at 0.3 µM (P2X7 receptor; 0.3 μM compound (symbols +)): 0 to 25%
CC(CO)n1ccc2c(NC(=O)CCc3ccc4c(c3)OCO4)cccc2c1=O (stereo not shown) [Compound 94],,,inhibition at 0.1 µM (P2X7 receptor; 0.1 μM compound (symbols *)): 0 to 25%
CCC(C(=O)Nc1cccc2c(=O)n(CCO)ccc12)c1ccccc1 (stereo not shown) [Compound 74],,,inhibition at 0.3 µM (P2X7 receptor; 0.3 μM compound (symbols +)): 0 to 25%
COc1ccc(CC(=O)Nc2cccc3c(=O)n(CC4(O)CCCCC4)ccc23)cc1 [Compound 33],,,inhibition at 0.3 µM (P2X7 receptor; 0.3 μM compound (symbols +)): 0 to 25%
O=C(CCCc1ccccc1)Nc1cccc2c(=O)n(CC3(O)CCCCC3)ccc12 [Compound 36],,,inhibition at 0.3 µM (P2X7 receptor; 0.3 μM compound (symbols +)): 26 to 50%
COc1ccc(C(=O)Nc2cccc3c(=O)n(CC4(O)CCCCC4)ccc23)c(C)c1 [Compound 83],,,inhibition at 0.1 µM (P2X7 receptor; 0.1 μM compound (symbols *)): 0 to 25%
CNC(=O)[C@@H](CO)n1ccc2c(NC(=O)C(C)c3ccc(Cl)cc3)cccc2c1=O (stereo partly shown) [Compound 261],51 to 75,,
CC(C)(O)Cn1ccc2c(NC(=O)Cc3ccc4c(c3)OCO4)cccc2c1=O [Compound 218],,,"inhibition at 0.1 µM (P2X7 receptor; 0.1 μM compound, ""*"" symbols): 0 to 25%"
"CC(C(=O)Nc1cccc2c(=O)n([C@H](CO)C(N)=O)ccc12)c1ccc(Cl)cc1 (stereo partly drawn) [Compound 252, (R)-2-{5-[2-(4-Chloro-phenyl)-propionylamino]-1-oxo-1H-isoquinolin-2-yl}-3-hydroxy-propionamide]",51 to 75,,
COc1ccc(CC(=O)Nc2cccc3c(=O)n(CC4(O)CCCCC4)ccc23)cc1OC [Compound 31],,,inhibition at 0.3 µM (P2X7 receptor; 0.3 μM compound (symbols +)): 0 to 25%

# Now from value to compound, other results behind:
"inhibition at 0.3 µM (P2X7 receptor; 0.3 μM compound, ""+"" symbols) [%]",solubility [1] [µM],Compound,also measured
> 76,26 to 50,C[C@H](C(N)=O)n1ccc2c(NC(=O)Cc3ccc(F)c(Cl)c3)cccc2c1=O [Compound 301],
,> 75,O=C(Cc1ccc(Cl)c(Cl)c1)Nc1cccc2c(=O)n(C(CO)CO)ccc12 [Compound 80],inhibition at 0.3 µM (P2X7 receptor; 0.3 μM compound (symbols +)): > 76%
> 76,< 25,"NC(=O)Cn1ccc2c(NC(=O)Cc3ccc(Cl)c(C(F)(F)F)c3)cccc2c1=O [Compound 249, 2-{5-[2-(4-Chloro-3-trifluoromethyl-phenyl)-acetylamino]-1-oxo-1H-isoquinolin-2-yl}-acetamide]",
> 76,< 25,C[C@H](C(N)=O)n1ccc2c(NC(=O)Cc3ccc(Cl)c(F)c3)cccc2c1=O [Compound 300],
,> 75,Cc1ccc2c(=O)n([C@H](C)CO)ccc2c1NC(=O)Cc1ccc(Cl)c(F)c1 [Compound 398],"IC50 (P2X7 receptor): 5.38 nM; inhibition at 0.3 µM (P2X7 receptor; ""+"" symbols = compound at 0.3 μM): > 76%"
> 76,< 25,C[C@H](C(N)=O)n1ccc2c(NC(=O)Cc3ccc(F)c(Br)c3)cccc2c1=O [Compound 307],
,< 25,O=C(Cc1ccc(Cl)cc1Cl)Nc1cccc2c(=O)n(CCO)ccc12 [Compound 69],inhibition at 0.3 µM (P2X7 receptor; 0.3 μM compound (symbols +)): > 76%
0 to 25,,CC(C)(CO)n1ccc2c(NC(=O)Cc3ccc(F)c(Cl)c3)cccc2c1=O [Compound 372],
51 to 75,,NCC(CCl)Cn1ccc2c(NC(=O)Cc3ccc(Cl)c(Cl)c3)cccc2c1=O (stereo not shown) [Compound 259],
> 76,,C[C@H](C(N)=O)n1ccc2c(NC(=O)Cc3ccc(F)cc3F)cccc2c1=O [Compound 293],
> 76,,O=C(Cc1ccc(Cl)c(F)c1)Nc1cccc2c(=O)n(CCO)ccc12 [Compound 354],
